This is an account of results in EP1816121B1, “9-Chloro-15-deoxyprostaglandin derivatives, process for their preparation and their use as medicaments” (Bayer Schering Pharma Aktiengesellschaft, priority 2005, dated 2007).

A word on the inhibition: it is the relative decrease from the control value, in per cent.

Assay [1] deals with Human monocyte derived dendritic cells. The assay is described as follows: Inhibition of human monocyte derived dendritic cell cytokine release, IL-12. In kind it is cell-based. The note with it: 18 h. From the text: (§1) Following stimulation through the toll-like receptors (TLR) DCs express and release proinflammatory cytokines and chemokines and may induce activation and proliferation of naïve T cells. The binding of an EP2 agonist to the DC EP receptor inhibits TLR4 ligand (LPS) stimulated Interleukin 12 (IL-12) release. […] Therefore an EP2 agonist skews the CD4 T cell differentiation away from the Th- lineage.
IL-12 is a 75 kDa glycoprotein heterodimer (p70) composed of two genetically unrelated subunits linked by a disulfide bond. Enzyme linked immuno sorbant assays (ELISA) based on antibodies specific to IL-12 p70 are commercially available. Standards and samples are pipetted into the wells of a microplate. An antibody specific to human IL-12 is added to the wells. A substrate is added to the wells and color develops in proportion to the amount of IL-12 bound. The intensity of the color is measured.
(§2) Human monocyte derived dendritic cells are isolated from human donors using a Ficoll density gradient and residual erythrocytes removed by selective lysis. CD14 MicroBeads are used for separation of human cells based on the expression of the CD14 antigen. The dendritic cells are cultured at approximately 1.5 x 10^6 cells per ml in RPMI 1640 with fetal bovine serum, 200 ng/ml GM-CSF (Leukine) and 10 ng/ml IL-4. The cells grow-for a period of 3 days and then the media is changed. 10ng/ml LPS is used to activate the cells. 1µM of substance (EP2 agonist) and 1µM of PGE2 are added during the LPS stimulation. Cells are incubated for approximately 18 hr at 37C. IL-12 and II-10 released during activation is measured by ELISA.

Assay [2] shares this test system. The assay is described as follows: Human monocyte derived dendritic cell cytokine release, IL-10. In kind it is cell-based. The settings on record: 18 h.
Excerpt: as §1
IL-10 initially designated cytokine synthesis inhibitory factor (CSIF), was originally identified as a product of Th-2 clones that suppressed the production of cytokines by Th-1 clones responding to stimulation by antigen in the presence of antigen-presenting cells. IL-10 is a dimer composed of two identical 160 amino acid subunits. Enzyme linked immuno sorbant assays (ELISA) based on antibodies specific to IL-10 are commercially available. Standards and samples are pipetted into the wells of a microplate. An antibody specific to human IL-10 is added to the wells. A substrate is added to the wells and color develops in proportion to the amount of IL-10 bound. The intensity of the color is measured.
as §2

The mark [3] stands for this setting: Donor 1, read-out: % inhibition below untreated, LPS- stimulated control.
Setting [4] is: Donor 2, read-out: % inhibition below untreated, LPS- stimulated control.
Setting [5] is: Donor 3, read-out: % inhibition below untreated, LPS- stimulated control.

SMILES strings stand for the structures.

For the molecule `CCCCC[C@H](O)/C=C/[C@H]1[C@H](O)CC(=O)[C@@H]1C/C=C\CCCC(=O)O` [PGE2, prostaglandin E2], the inhibition at 1 µM came to 78% in assay [1] (setting [3]); 44% in assay [1] (setting [4]); 84% in assay [1] (setting [5]); 29% in assay [1] (Donor 4, read-out: % inhibition below untreated, LPS- stimulated control); 103% in assay [2] (setting [3]); 134% in assay [2] (setting [4]). In addition, the inhibition at 1 µM in assay [2] (setting [5]) was 107%.
